Measured values: patent US20260070895A1, “CRYSTALLINE FORMS” (QUIMATRYX, S.L., priority 2022, published 2026)

What was measured:
[1] = Genotoxicity (clastogenicity, aneugenicity); settings: unlike other histone deacetylase inhibitors
[2] = Pharmacokinetic properties; format: in vivo; settings: compared with other histone deacetylase inhibitors
[3] = Solubility and stability of QTX125 in aqueous solution (background); format: physicochemical
HDAC 6 = molecular target: T1, HDAC 6 (Homo sapiens, UniProt Q9UBN7); settings: cited from earlier work
T1 sequence (Q9UBN7 1-1215): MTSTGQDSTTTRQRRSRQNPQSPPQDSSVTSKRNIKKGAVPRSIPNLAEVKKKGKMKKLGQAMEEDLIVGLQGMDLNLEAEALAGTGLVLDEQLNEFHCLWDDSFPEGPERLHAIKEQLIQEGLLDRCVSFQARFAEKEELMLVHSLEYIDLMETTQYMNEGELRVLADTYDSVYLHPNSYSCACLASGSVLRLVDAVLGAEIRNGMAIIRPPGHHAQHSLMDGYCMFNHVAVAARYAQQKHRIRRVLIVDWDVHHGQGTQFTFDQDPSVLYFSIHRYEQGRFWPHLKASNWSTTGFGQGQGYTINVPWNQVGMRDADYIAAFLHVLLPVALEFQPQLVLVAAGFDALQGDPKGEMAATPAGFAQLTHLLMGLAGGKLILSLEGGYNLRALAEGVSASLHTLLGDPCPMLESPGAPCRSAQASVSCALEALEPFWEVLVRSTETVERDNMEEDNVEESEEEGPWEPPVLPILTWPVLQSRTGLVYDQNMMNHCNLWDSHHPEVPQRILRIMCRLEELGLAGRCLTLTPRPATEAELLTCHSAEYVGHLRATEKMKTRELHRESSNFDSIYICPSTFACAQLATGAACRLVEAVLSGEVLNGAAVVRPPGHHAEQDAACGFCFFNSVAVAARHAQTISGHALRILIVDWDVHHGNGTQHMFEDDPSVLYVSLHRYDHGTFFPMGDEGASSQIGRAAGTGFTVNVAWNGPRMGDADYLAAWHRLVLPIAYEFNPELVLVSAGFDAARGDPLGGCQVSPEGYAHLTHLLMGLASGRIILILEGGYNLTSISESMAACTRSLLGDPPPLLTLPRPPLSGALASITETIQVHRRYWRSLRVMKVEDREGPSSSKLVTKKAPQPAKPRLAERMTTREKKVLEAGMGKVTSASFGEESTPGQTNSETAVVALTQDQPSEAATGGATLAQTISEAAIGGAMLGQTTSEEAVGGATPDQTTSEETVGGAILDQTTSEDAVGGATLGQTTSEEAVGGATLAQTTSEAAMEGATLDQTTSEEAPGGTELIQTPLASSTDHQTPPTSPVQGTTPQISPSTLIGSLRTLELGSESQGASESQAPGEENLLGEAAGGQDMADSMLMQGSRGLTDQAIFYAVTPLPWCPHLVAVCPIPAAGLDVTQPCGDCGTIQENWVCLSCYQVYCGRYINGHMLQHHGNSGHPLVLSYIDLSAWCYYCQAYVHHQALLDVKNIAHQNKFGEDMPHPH

[4] = test system: mantle cell lymphoma, lung cancer and pancreatic cancer xenograft; settings: lung cancer and pancreatic cancer xenograft murine models; cited from earlier work
[5] = test system: multiple sclerosis mice models; settings: two different multiple sclerosis mice models; cited from earlier work
[6] = hydroxamic acids such as QTX125; cited from earlier work

## O=C(NO)c1ccc(CNC(=O)c2[nH]c(-c3ccc(O)cc3)cc2-c2ccoc2)cc1 [QTX125, 3-(3-furyl)-N-{4-[(hydroxyamino)carbonyl]benzyl}-5-(4-hydroxyphenyl)-1H-pyrrole-2-carboxamide]
[1]
  genotoxicity, in particular clastogenicity or aneugenicity: no evidence of genotoxicity
[2]
  pharmacokinetic properties: half-lives and distribution volumes: higher half-lives and distribution volumes
[3]
  physical and chemical stability in solution: physical and chemical instability
HDAC 6
  HDAC 6 inhibition (in words): highly selective and highly potent
[4]
  antitumoral efficacy: high antitumoral efficacy
[5]
  efficacy in multiple sclerosis models: high efficacy
[6]
  solubility in water: very low solubility
